From the supplement of paper PMC10307832

Key:
Experiment in all cases: relative viability (nuclei count vs DMSO), 5 days (fraction); higher = more cells survive
XMD13-2 + AZD7762 = compound: C1CC1C(=O)NC2=NNC3=C2C=CC(=C3)C4=CC(=CC=C4)C(=O)NC5CC5 [XMD13-2] + NC(=O)Nc1cc(-c2cccc(F)c2)sc1C(=O)N[C@H]1CCCNC1 [AZD7762] (partner 0.2 µM)
Procedure, shortened: (§1)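 For relative viability, nuclei counts in treated wells were divided by those in vehicle wells. Lung cancer cell lines had been pin-tool dosed in 1536-well plates the day after seeding and cultured for 5 days, then fixed and stained in one step (final 0.05% Triton X-100, 1% formaldehyde, 1 ug/ml Hoechst) and imaged at 4×. Doses were one drug alone or a fixed anchor-drug dose plus five library-drug doses (not always all listed) in √10 steps, and values are duplicate-plate medians.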

ALW-II-49-7 + Pictilisib = compound: Cc1ccc(C(=O)Nc2cccc(C(F)(F)F)c2)cc1Nc1cncc(C(N)=O)c1 [ALW-II-49-7] + CS(=O)(=O)N1CCN(Cc2cc3nc(-c4cccc5[nH]ncc45)nc(N4CCOCC4)c3s2)CC1 [Pictilisib] (partner 1 µM)
Procedure, shortened: as §1

ALW-II-49-7 + Linsitinib = compound: Cc1ccc(C(=O)Nc2cccc(C(F)(F)F)c2)cc1Nc1cncc(C(N)=O)c1 [ALW-II-49-7] + C[C@]1(O)C[C@@H](c2nc(-c3ccc4ccc(-c5ccccc5)nc4c3)c3c(N)nccn32)C1 [Linsitinib] (partner 1 µM)
Procedure, shortened: as §1

Dasatinib + Pemetrexed = compound: Cc1nc(Nc2ncc(C(=O)Nc3c(C)cccc3Cl)s2)cc(N2CCN(CCO)CC2)n1 [Dasatinib] + Nc1nc2[nH]cc(CCc3ccc(C(=O)N[C@@H](CCC(=O)O)C(=O)O)cc3)c2c(=O)[nH]1 [Pemetrexed] (partner 0.2 µM)
Procedure, shortened: as §1

| Cell Line | relative viability (XMD13-2 + AZD7762; first compound 0.05 µM) | relative viability (XMD13-2 + AZD7762; first compound 0.1581 µM) | relative viability (XMD13-2 + AZD7762; first compound 0.5 µM) | relative viability (XMD13-2 + AZD7762; first compound 1.581 µM) | relative viability (XMD13-2 + AZD7762; first compound 5 µM) | relative viability (ALW-II-49-7 + Pictilisib; first compound 0.08 µM) | relative viability (ALW-II-49-7 + Pictilisib; first compound 0.253 µM) | relative viability (ALW-II-49-7 + Pictilisib; first compound 0.8 µM) | relative viability (ALW-II-49-7 + Pictilisib; first compound 2.53 µM) | relative viability (ALW-II-49-7 + Pictilisib; first compound 8 µM) | relative viability (ALW-II-49-7 + Linsitinib; first compound 0.08 µM) | relative viability (ALW-II-49-7 + Linsitinib; first compound 0.253 µM) | relative viability (ALW-II-49-7 + Linsitinib; first compound 0.8 µM) | relative viability (ALW-II-49-7 + Linsitinib; first compound 2.53 µM) | relative viability (ALW-II-49-7 + Linsitinib; first compound 8 µM) | relative viability (Dasatinib + Pemetrexed; first compound 0.005 µM) | relative viability (Dasatinib + Pemetrexed; first compound 0.01581 µM) | relative viability (Dasatinib + Pemetrexed; first compound 0.05 µM) | relative viability (Dasatinib + Pemetrexed; first compound 0.1581 µM) | relative viability (Dasatinib + Pemetrexed; first compound 0.5 µM) |
| --- | --- | --- | --- | --- | --- | --- | --- | --- | --- | --- | --- | --- | --- | --- | --- | --- | --- | --- | --- | --- |
| NCI-H838 | 0.986 | 1.04 | 1.06 | 0.967 | 0.954 | 0.342 | 0.464 | 0.432 | 0.46 | 0.393 | 1.06 | 1.08 | 1.06 | 1.14 | 1.15 | 0.26 | 0.241 | 0.218 | 0.176 | 0.214 |
| NCI-H2347 | 0.971 | 0.759 | 0.888 | 0.735 | 0.822 | 0.519 | 0.505 | 0.505 | 0.633 | 0.493 | 1 | 0.974 | 1.08 | 0.868 | 0.737 | 0.375 | 0.38 | 0.342 | 0.253 | 0.259 |
| NCI-H441 | 1.17 | 1.29 | 1.18 | 1.14 | 1.04 | 0.439 | 0.382 | 0.49 | 0.458 | 0.378 | 0.529 | 0.61 | 0.432 | 0.496 | 0.508 | 0.305 | 0.259 | 0.286 | 0.225 | 0.27 |
| NCI-H1944 | 0.555 | 0.473 | 0.488 | 0.75 | 0.551 | 0.314 | 0.371 | 0.328 | 0.364 | 0.324 | 1.18 | 1.26 | 1.3 | 1.29 | 1.2 | 0.573 | 0.583 | 0.49 | 0.234 | 0.158 |
| NCI-H2405 | 0.849 | 0.712 | 0.728 | – | 0.8 | 0.409 | 0.526 | 0.368 | 0.345 | 0.366 | 0.892 | 1.01 | 0.958 | 0.376 | 0.9 | 0.852 | 0.65 | 0.422 | 0.229 | 0.22 |
| HCC-15 | 1.35 | 1.15 | 1.17 | 1.22 | 1.24 | 0.849 | 0.791 | 0.705 | 0.805 | 0.741 | 0.963 | 0.931 | 0.973 | 0.971 | 0.947 | 0.198 | 0.207 | 0.209 | 0.203 | 0.205 |
